# From publication PMC11926788, “Effect of SSR504734, a Selective Glycine Transporter Type 1 Inhibitor, on Seizure Thresholds, Neurotransmitter Levels, and Inflammatory Markers in Mice” (ACS Chemical Neuroscience, 2025)
# Where “and” joins values, the source holds several entries; their conditions need not be identical. Equal entries are not always repeated. Structures can show the parent of a compound that is named as a salt.
# Columns and labels:
# [1] = test system: GlyT1; conditions: in vitro assay; cited from earlier work
# [2] = PAMPA (Gentest Precoated PAMPA Plate System); assay type: in vitro ADME; conditions: ± SD
# Experimental: A series of in vitro ADME-Tox tests were performed for SSR504734 in order to estimate its drugability. The ADME-Tox parameters including permeability, plasma protein binding, metabolic stability, neurotoxicity, and hepatotoxicity were carried out as described previously.[31],[32] The ability of SSR504734 to penetrate through the biological membrane by passive diffusion was estimated by the Gentest Precoated PAMPA Plate System (Corning, Tewksbury, MA) and expressed as the permeability coefficient (Pe). The protein binding analysis was performed by using the commercial TRANSIL^XL PPB test, which mimics in vitro physiological plasma conditions where human serum albumin (HAS) and alpha-1-acid glycoprotein AGP are present in a 24:1 ratio. The human metabolism of SSR504734 was studied using human liver microsomes (HLMs) provided by Sigma-Aldrich. The hepatotoxicity and neurotoxicity were estimated in cellular models with the use of hepatoma HepG2 and neuroblastoma SH-SY5Y cell lines to perform the preliminary safety tests. The cells were incubated with SSR504734 at the concentration range of 0.1–100 μM. 1 μM cytostatic drug doxorubicin (DX) was used as the reference.
# [3] = Chimney test (motor coordination); assay type: in vivo, mice
# Experimental: The impact of SSR504734 on motor coordination in mice was evaluated by using the chimney test. Each animal was individually placed inside a transparent Plexiglas tube with an inner diameter of 3 cm and a length of 30 cm. The tube was horizontally positioned on a table and shifted vertically once the mouse reached the opposite end. Within a 60 s time frame, the mouse was required to climb backward to escape from the tube. In order to minimize the number of animals used, a chimney test was carried out shortly before seizure tests.
# (§1) Table S2. Time-course effect of SSR5504734 on neuromuscular strength and motor […]
# (§2) Group Neuromuscular strength Impairment of motor
# (§3) SSR504734 was dissolved in normal saline and injected i.p. at the dose of 30 mg/kg. Control animals received saline. The data are expressed as the mean ± SD of grip strengths measured in millinewtons per gram of mouse body weight (mN/g) from the grip-strength test assessing […]
# (§4) coordination impairment in the chimney test. Each experimental group consisted of 12 animals. The grip-strength test results were analyzed using a one-way ANOVA with Dunnett’s post hoc test, while the data from the chimney test were statistically evaluated using Fisher’s exact probability test. *p<0.05 vs. control group.
# (§5) Table S3. Effect of acute and 14-day treatment with SSR504734 on neuromuscular strength and motor coordination in mice
# (§6) In acute studies, SSR504734 and sodium valproate (VPA; positive control) were injected i.p.
# (§7) 60 and 15 min before the test, respectively. In subchronic studies, SSR504734 and VPA were injected i.p. every 24 h for 14 days. The last administration was made 60 and 15 min before the tests, respectively. Control animals received saline. Each experimental group consisted of 12 animals. The grip-strength test results were analyzed using a one-way ANOVA with […]
# (§8) Fisher’s exact probability test.
# [4] = test system: i.v. PTZ-induced seizures in mice; experiment: Intravenous (i.v.) PTZ seizure threshold test; assay type: in vivo; conditions: VPA 150 mg/kg
# Experimental: Mice were individually placed in a plastic restrainer (12 cm long, 3 cm inner diameter), and the lateral vein of each mouse was catheterized using a 27-gauge needle (Sterican, B. Braun Melsungen, Melsungen, Germany). The needle was attached by polyethylene tubing (PE20RW, Plastics One Inc., Roanoke, VA, USA) to a 10 mL plastic syringe containing 1% solution of PTZ in saline (Sigma-Aldrich, St. Louis, MO, USA) and mounted to a syringe pump (model Physio 22, Hugo Sachs Elektronik, Harvard Apparatus GmbH, March-Hugstetten, Germany). Piece of adhesive tape was used to secure the needle. The proper placement of the needle in the vein was verified by the appearance of blood in the tubing. During the test, mice were placed in a transparent box for observation. The PTZ solution was administered to freely moving mice at a constant rate of 0.2 mL/min. The time intervals from the initiation of PTZ infusion to the occurrence of the three following end points, i.e., (1) the first myoclonic twitch, (2) generalized clonic seizure with loss of righting reflex, and (3) forelimb tonus, were recorded. The PTZ infusion was terminated when tonic seizures, which were often fatal for the mice, began. All mice that survived were euthanized immediately. The thresholds were calculated separately for each end point using the following formula: threshold dose of PTZ (mg/kg) = infusion duration (s) × infusion rate (mL/s) × PTZ concentration (mg/mL)/body weight (kg). Seizure threshold was expressed as the amount of PTZ (mg/kg) ± SD (standard deviation) needed to produce the first observable sign of each end point. Each group consisted of 12–15 animals.
# [5] = Grip strength test (neuromuscular strength); assay type: in vivo, mice
# Experimental: The effect of SSR504734 on neuromuscular strength was determined using the grip-strength apparatus (BioSeb, Chaville, France). The apparatus consists of a steel wire grid of 8 × 8 cm, connected to an isometric force transducer. Each mouse was held by the tail, allowing it to grasp the grid with its forepaws only and steadily pulled back until it released the grid. The maximum grip strength value (in newtons; N) was measured three times for each animal. The mean force was normalized to body weight and expressed in mN/g ± SD for each experimental group. In order to minimize the number of animals used, a grip-strength test was carried out shortly before seizure tests.
# as §1, §2, §3, §4, §5, §6, §7, §8
# [6] = 14-day treatment, 10 mg/kg i.p.
# [7] = 14-day treatment, 30 mg/kg i.p.
structure (smiles),measurement,setting,value
"O=C(NC(c1ccccc1)C1CCCCN1)c1cccc(C(F)(F)F)c1Cl [SSR504734, 2-chloro-N-[(S)-phenyl[(2S)-piperidin-2-yl]methyl]-3-trifluoromethyl benzamide monohydrochloride]",IC50 for GlyT1 inhibition,[1],7.8 (±2.6) ng/mL
same,Papp,"[2]; PAMPA, read-out: PAMPA Pe",14.8 ± 1.49 ×10⁻⁶ cm/s
same,PAMPA Pe,[2],14.80 10^–6 cm/s
same,Impairment of motor coordination,"[3]; 30 mg/kg i.p., 15 min",0%
same,Impairment of motor coordination,"[3]; 30 mg/kg i.p., 30 min",0%
same,Impairment of motor coordination,"[3]; 30 mg/kg i.p., 60 min",0%
same,Impairment of motor coordination,"[3]; 30 mg/kg i.p., 120 min",8.33%
same,Impairment of motor coordination,"[3]; 30 mg/kg i.p., 240 min",0%
same,Impairment of motor coordination,"[3]; 14-day treatment, 3 mg/kg i.p.",0%
same,Impairment of motor coordination,[3]; [6],0%
same,Impairment of motor coordination,[3]; [7],0%
same,Impairment of motor coordination,"[3]; acute treatment, 10 mg/kg i.p.",0%
same,Impairment of motor coordination,"[3]; acute treatment, 30 mg/kg i.p.",0%
same,Impairment of motor coordination,"[3]; acute treatment, 50 mg/kg i.p., 50 mg/kg",33.3% and ~33%
same,"effect on thresholds for myoclonic twitch, generalized clonus and forelimb tonus",[4]; 14-day treatment i.p.,no significant effect
same,"effect on thresholds for myoclonic twitch, generalized clonus and forelimb tonus",[4]; single administration i.p.,no significant effect
same,Neuromuscular strength,"[5]; 30 mg/kg i.p., 30 min",30.33 ± 5.38 mN/g
same,Neuromuscular strength,"[5]; 30 mg/kg i.p., 60 min",33.63± 4.94 mN/g
same,Neuromuscular strength,"[5]; 30 mg/kg i.p., 120 min",33.49 ± 3.76 mN/g
same,Neuromuscular strength,"[5]; 30 mg/kg i.p., 240 min",32.13 ± 3.42 mN/g
same,Neuromuscular strength,"[5]; 14-day treatment, 3 mg/kg i.p.",25.02 ± 5.35 mN/kg
same,Neuromuscular strength,[5]; [6],23.48 ± 5.98 mN/kg
same,Neuromuscular strength,[5]; [7],27.76 ± 6.00 mN/kg
same,Neuromuscular strength,"[5]; acute treatment, 10 mg/kg i.p.",31.15 ± 5.55 mN/kg
same,Neuromuscular strength,"[5]; acute treatment, 30 mg/kg i.p.",31.00 ± 9.46 mN/kg
same,Neuromuscular strength,"[5]; acute treatment, 50 mg/kg i.p.",30.31 ± 5.08 mN/kg
